Biological target: placental alkaline phosphatase (ALPP), human
Experiment: PLAP enzyme inhibitors, confirmation, biochemical, luminescence (AID 1512)
Conditions: purified PLAP enzyme, luminescent substrate read-out

Structure (SMILES) | IC50 [µM]
Cc1cc2ncn(CC(=O)c3ccc(O)c(O)c3)c2cc1C | 5.83
CC(C)NCC(=O)c1ccc(O)c(O)c1 | 39.3
Cc1nc(Br)cn1CC(=O)c1ccc(O)c(O)c1 | 4.96
O=C(Cn1ccnc1-c1ccccc1)c1ccc(O)c(O)c1 | 17.2
Cc1cn(CC(=O)c2ccc(O)c(O)c2)cn1 | 5.81
O=C(CNc1nc2ccccc2[nH]1)c1ccc(O)c(O)c1 | 9.11
Cc1cc(C)nc(NCc2ccc(O)c(O)c2)n1 | 51.2
